Data from US12630498B2 (Genzyme Corporation, priority 2019, dated 2026).

Biological target: T1, human Cystic Fibrosis Transmembrane Conductance Regulator (CFTR) harboring the ΔF508 mutation (Homo sapiens, UniProt P13569, DEL508-508)
T1 construct: expressed in transfected cells; host or cells: H441 carcinoma line (G418-selected)
Assay: H441 cell ΔF508-CFTR-HRP cell surface assay (Emax and EC50)
Format: cell-based
Conditions: for Emax: NCI-H441, NA = Not active
Excerpt: Example 315: H441 Cell Emax and EC50 Two cell lines were used, the H441 carcinoma line and the CFHBE41o- (41o-) human bronchial epithelial line. Both cell lines expressed human Cystic Fibrosis Transmembrane Conductance Regulator (CFTR) harboring the ΔF508 mutation and with an in-frame fusion in CFTR extracellular loop 4 of Horse Radish Peroxidase (HRP) under control of the CMV promoter. In the presence of the HRP tag, ΔF508-CFTR transported to the cell surface was detectable upon addition of an HRP substrate (Luminata Forte). Both cell types were cultivated at 37° C. with CO2. […] For both cell types, the medium was changed every other day unless the culture was at low % confluence. Cells were used for the assays at 75% confluence. To a polypropylene (PP) 384-well plate, 15 pls DMSO was added to all wells in columns 1-22 and 24 (low Control). 15 μls of 260 μM VX809 (Lumacaftor), Selleckchem […], was added to column 23 wells (high Control). 15 pls of 10 mM test compound or VX809 (control) were added to wells of row A. Serial dilutions of Row A compound were performed 2×15 pls in rows A through 0 (15-point). A PP, 384-well plate containing the appropriate cell culture medium was prepared for each assay plate with 100 pls per well. For the doxycycline-induced 41o-cells, doxycycline for both the assay plate and the medium dilution plate was added at 0.0005 mg/ml to the medium. Both cell lines were plated for the assay at 30 pls per 384-well at 3.4×10 e^5 cells per ml ( 10K cells/well). H441 cells were plated on opaque, white, Corning plate 3704. 41o-cells were plated on collagen-coated opaque, white, Corning plate 356665. For 41o-cells, doxycycline was added to the medium. Using FX (Beckman) protocol, 10 pls diluted compound or medium was added per well to the Assay Plate as: 2 pls DMSO Dilution plate well was diluted in 100 pls of the Medium Dilution Plate well, mixed, and 10 pls was transferred to the Assay Plate. The final assay dilution series was 24.5, 12.3, 6.1, 3.1, 1.5, 0.8, 0.4, 0.2, 0.1, 0.05, 0.02, 0.01, 0.006, 0.003, 0.001 and 0 μM. The 41o-assay plates were incubated at 37° C. w/CO2, the H441 assay plates were incubated at 27° C. w/CO2, each overnight for two nights. After being brought to room temperature, the assay plate liquid was removed. 30 uls of Luminata Forte (Millipore ELLUF0100) was added per well and incubated at room temperature for 10 min. The plates were then read on a Topcount, protocol LumiMatti (CPS, luminescence). The data was analyzed for % of maximum, maximum VX809 signal, and EC50 using Pearl and SPEED tools.

T1 sequence (P13569 with tags, fused parts or gaps DEL508-508): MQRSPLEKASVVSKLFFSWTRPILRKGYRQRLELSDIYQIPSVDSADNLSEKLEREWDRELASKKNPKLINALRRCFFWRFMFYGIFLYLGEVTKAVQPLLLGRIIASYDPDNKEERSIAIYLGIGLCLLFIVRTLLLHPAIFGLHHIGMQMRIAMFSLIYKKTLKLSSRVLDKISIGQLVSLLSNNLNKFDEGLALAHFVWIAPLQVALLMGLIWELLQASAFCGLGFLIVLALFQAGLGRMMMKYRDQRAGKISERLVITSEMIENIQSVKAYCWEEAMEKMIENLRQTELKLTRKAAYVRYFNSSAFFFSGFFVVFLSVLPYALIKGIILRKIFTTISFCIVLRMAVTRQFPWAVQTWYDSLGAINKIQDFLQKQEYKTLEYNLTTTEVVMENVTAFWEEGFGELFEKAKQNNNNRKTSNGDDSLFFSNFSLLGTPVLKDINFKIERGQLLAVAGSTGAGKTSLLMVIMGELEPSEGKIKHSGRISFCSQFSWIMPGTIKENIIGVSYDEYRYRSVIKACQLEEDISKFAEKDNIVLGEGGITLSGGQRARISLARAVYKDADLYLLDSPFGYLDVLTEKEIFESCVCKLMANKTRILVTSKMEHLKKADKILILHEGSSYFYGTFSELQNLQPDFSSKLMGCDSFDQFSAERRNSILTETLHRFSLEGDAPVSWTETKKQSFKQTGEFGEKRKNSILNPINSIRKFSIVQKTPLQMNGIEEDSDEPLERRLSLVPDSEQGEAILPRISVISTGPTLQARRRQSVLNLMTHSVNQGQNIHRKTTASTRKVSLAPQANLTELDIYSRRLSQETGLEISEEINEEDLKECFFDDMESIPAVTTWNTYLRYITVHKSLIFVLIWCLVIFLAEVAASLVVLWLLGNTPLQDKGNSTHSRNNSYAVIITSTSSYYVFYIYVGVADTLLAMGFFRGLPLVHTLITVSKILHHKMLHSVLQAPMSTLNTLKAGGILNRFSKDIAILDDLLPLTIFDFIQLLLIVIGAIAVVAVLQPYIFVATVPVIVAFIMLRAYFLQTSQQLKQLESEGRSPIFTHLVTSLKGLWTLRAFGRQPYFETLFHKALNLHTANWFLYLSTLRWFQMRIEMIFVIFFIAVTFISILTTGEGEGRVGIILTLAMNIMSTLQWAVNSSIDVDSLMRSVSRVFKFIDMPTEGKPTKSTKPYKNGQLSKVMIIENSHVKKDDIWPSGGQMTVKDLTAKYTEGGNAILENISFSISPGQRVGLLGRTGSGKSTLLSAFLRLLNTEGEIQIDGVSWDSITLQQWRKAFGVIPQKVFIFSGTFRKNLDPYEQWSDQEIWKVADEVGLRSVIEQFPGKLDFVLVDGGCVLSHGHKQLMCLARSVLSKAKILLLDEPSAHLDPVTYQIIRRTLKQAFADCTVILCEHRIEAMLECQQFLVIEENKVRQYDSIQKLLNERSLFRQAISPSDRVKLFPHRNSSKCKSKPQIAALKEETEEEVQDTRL

Row | Emax [%] | EC50 [µM] | SMILES
1 | 18.8 |  | NC(N)=Nc1ccc(C[C@@H](NC(=O)c2ccc3ccccc3c2OCc2ccc(C(F)(F)F)cc2)C(=O)O)cc1 [Example 105, (R)-3-(4-((diaminomethylene)amino)phenyl)-2-(1-((4-(trifluoromethyl)benzyl)oxy)-2-naphthamido)propanoic Acid]
2 | 63.4 | 10.9 | N#Cc1ccc(C[C@H](NC(=O)c2ccc3ccccc3c2OCc2ccc(C(F)(F)F)cc2)C(=O)O)cc1 [Example 107, (S)-3-(4-cyanophenyl)-2-(1-((4-(trifluoromethyl)benzyl)oxy)-2-naphthamido)propanoic Acid]
3 | 4.7 |  | CC(C)(C)C[C@H](NC(=O)c1ccc2ccccc2c1OCc1ccc(OC(F)F)cc1)C(=O)O [Example 108, (S)-2-(1-((4-(difluoromethoxy)benzyl)oxy)-2-naphthamido)-4,4-dimethylpentanoic Acid]
4 | 52.7 | 14.2 | CC(C)(C)C[C@H](NC(=O)c1ccc2cc(F)ccc2c1OCC1CCC(F)(F)CC1)C(=O)O [Example 109, (S)-2-(1-((4,4-difluorocyclohexyl)methoxy)-6-fluoro-2-naphthamido)-4,4-dimethylpentanoic Acid]
5 | 58.1 | 1.9 | CC(C)(C)C[C@H](NC(=O)c1ccc2cc(F)ccc2c1OCc1ccc(S(F)(F)(F)(F)F)cc1)C(=O)O [Example 112, (S)-2-(6-fluoro-1-((4-(pentafluoro-16-sulfanyl)benzyl)oxy)-2-naphthamido)-4,4-dimethylpentanoic Acid]
6 | 58.2 | 3.7 | O=C(N[C@H](C(=O)O)C1CCCC1)c1ccc2cc(F)ccc2c1OCc1ccc(S(F)(F)(F)(F)F)cc1 [Example 113, (S)-2-cyclopentyl-2-(6-fluoro-1-((4-(pentafluoro-16-sulfanyl)benzyl)oxy)-2-naphthamido)acetic Acid]
7 | 47 | 1.6 | CC(C)(C)C[C@H](NC(=O)c1ccc2cc(F)ccc2c1OCc1ccc(SC(F)(F)F)cc1)C(=O)O [Example 117, (S)-2-(6-fluoro-1-((4-((trifluoromethyl)thio)benzyl)oxy)-2-naphthamido)-4,4-dimethylpentanoic Acid]
8 | 71 | 2.8 | COC(C)(C)[C@H](NC(=O)c1ccc2cc(F)ccc2c1OCc1ccc(SC(F)(F)F)cc1)C(=O)O [Example 118, (S)-2-(6-fluoro-1-((4-((trifluoromethyl)thio)benzyl)oxy)-2-naphthamido)-3-methoxy-3-methylbutanoic Acid]
9 | 3.7 | 0.2 | O=C(N[C@@H](Cc1ccccc1)C(=O)O)c1ccc2ccccc2c1OCc1ccc2c(c1)OCO2 [Example 121, (1-(benzo[d][1,3]dioxol-5-ylmethoxy)-2-naphthoyl)-L-phenylalanine]
10 | 24.5 | 0.3 | O=C(N[C@@H](Cc1ccccc1)C(=O)O)c1ccc2ccccc2c1OCc1ccc(Br)cc1 [Example 122, (1-((4-bromobenzyl)oxy)-2-naphthoyl)-L-phenylalanine]
11 | 4 |  | CC(Oc1c(C(=O)N[C@@H](Cc2ccccc2)C(=O)O)ccc2ccccc12)c1ccc(Br)cc1 (stereo partly drawn) [Example 123, (1-(1-(4-bromophenyl)ethoxy)-2-naphthoyl)-L-phenylalanine]
12 | 10.5 | 1.3 | CC(Oc1c(C(=O)N[C@@H](Cc2ccccc2)C(=O)O)ccc2ccccc12)c1ccc(C(F)(F)F)cc1 (stereo partly drawn) [Example 124, (1-(1-(4-(trifluoromethyl)phenyl)ethoxy)-2-naphthoyl)-L-phenylalanine]
13 | 31.5 | 20.3 | N#Cc1ccc(COc2c(C(=O)N[C@@H](Cc3ccccc3)C(=O)O)ccc3ccccc23)cc1 [Example 125, (1-((4-cyanobenzyl)oxy)-2-naphthoyl)-L-phenylalanine]
14 | 49.2 | 11.6 | O=C(N[C@H](C(=O)O)C(c1ccccc1)c1ccccc1)c1ccc2ccccc2c1OCc1ccc(C(F)(F)F)cn1 [Example 132, (S)-3,3-diphenyl-2-(1-((5-(trifluoromethyl)pyridin-2-yl)methoxy)-2-naphthamido)propanoic Acid]
15 | 93.5 | 4.7 | CO[C@@H](C)[C@H](NC(=O)c1ccc2ccccc2c1OCc1ccc(C(F)(F)F)cc1)C(=O)O [Example 135, O-methyl-N-(1-((4-(trifluoromethyl)benzyl)oxy)-2-naphthoyl)-L-allothreonine]
16 | 38.4 | 16.4 | COCC[C@H](NC(=O)c1ccc2ccccc2c1OCc1ccc(C(F)(F)F)cc1)C(=O)O [Example 137, O-methyl-N-(1-((4-(trifluoromethyl)benzyl)oxy)-2-naphthoyl)-L-homoserine]
17 | 22.4 | 16.4 | CC(C)(O)[C@H](NC(=O)c1ccc2ccccc2c1OCc1ccc(C(F)(F)F)cc1)C(=O)O [Example 138, (S)-3-hydroxy-3-methyl-2-(1-((4-(trifluoromethyl)benzyl)oxy)-2-naphthamido)butanoic Acid]
18 | 140 | 4.5 | C[C@@H](OCc1ccccc1)C(NC(=O)c1ccc2ccccc2c1OCc1ccc(C(F)(F)F)cc1)C(=O)O (stereo partly drawn) [Example 144, (3R)-3-(benzyloxy)-2-(1-((4-(trifluoromethyl)benzyl)oxy)-2-naphthamido)butanoic Acid]
19 | 72.6 | 12 | Cc1cc(COc2c(C(=O)NC(C(=O)O)[C@@H](C)OCc3ccccc3)ccc3ccccc23)no1 (stereo partly drawn) [Example 145, (3R)-3-(benzyloxy)-2-(1-((5-methylisoxazol-3-yl)methoxy)-2-naphthamido)butanoic Acid]
20 | 62.2 | 17.4 | C[C@@H](OCc1ccccc1)C(NC(=O)c1ccc2ccccc2c1OCC1CCC(CO)CC1)C(=O)O (stereo partly drawn) [Example 146, (3R)-3-(benzyloxy)-2-(1-((4-(hydroxymethyl)cyclohexyl)methoxy)-2-naphthamido)butanoic Acid]
21 | 68.9 | 16.8 | C[C@@H](OCc1ccccc1)C(NC(=O)c1ccc2ccccc2c1OCC1CC2CCC1C2)C(=O)O (stereo partly drawn) [Example 147, (3R)-3-(benzyloxy)-2-(1-(bicyclo[2.2.1]heptan-2-ylmethoxy)-2-naphthamido)butanoic Acid]
22 | 65.2 | 18.3 | C[C@@H](OCc1ccccc1)C(NC(=O)c1ccc2ccccc2c1OCc1nc2ccccc2s1)C(=O)O (stereo partly drawn) [Example 148, (3R)-2-(1-(benzo[d]thiazol-2-ylmethoxy)-2-naphthamido)-3-(benzyloxy)butanoic Acid]
23 | 51.7 | 1.9 | O=C(N[C@H](C(=O)O)C1CCCC1)c1ccc2ccccc2c1OCc1ccc(S(=O)(=O)C(F)(F)F)cc1 [Example 156, (S)-2-cyclopentyl-2-(1-((4-((trifluoromethyl)sulfonyl)benzyl)oxy)-2-naphthamido)acetic Acid]
24 | 55 | 7.1 | CC(C)(C)C[C@H](NC(=O)c1ccc2ccccc2c1OCc1ccc(S(=O)(=O)C(F)(F)F)cc1)C(=O)O [Example 157, (S)-4,4-dimethyl-2-(1-((4-((trifluoromethyl)sulfonyl)benzyl)oxy)-2-naphthamido)pentanoic Acid]
25 | 13 |  | CC(C)(C)C[C@H](NC(=O)c1ccc2ccccc2c1OCc1ccc(S(C)(=O)=O)cc1)C(=O)O [Example 158, (S)-4,4-dimethyl-2-(1-((4-(methylsulfonyl)benzyl)oxy)-2-naphthamido)pentanoic Acid]
26 | 22.8 | 6.7 | CS(=O)(=O)c1ccc(COc2c(C(=O)N[C@H](C(=O)O)C3CCCC3)ccc3ccccc23)cc1 [Example 159, (S)-2-cyclopentyl-2-(1-((4-(methylsulfonyl)benzyl)oxy)-2-naphthamido)acetic Acid]
27 | 47.2 | 3.3 | COc1ccc2c(OCc3ccc(C(F)(F)F)cc3)c(C(=O)N[C@H](C(=O)O)C3CCCC3)ccc2c1 [Example 160, (S)-2-cyclopentyl-2-(6-methoxy-1-((4-(trifluoromethyl)benzyl)oxy)-2-naphthamido)acetic Acid]
28 | 47.7 | 3.2 | COc1ccc2c(OCc3ccc(C(F)(F)F)cc3)c(C(=O)N[C@@H](CC(C)(C)C)C(=O)O)ccc2c1 [Example 161, (S)-2-(6-methoxy-1-((4-(trifluoromethyl)benzyl)oxy)-2-naphthamido)-4,4-dimethylpentanoic Acid]
